Literature values, collected in patent publication US8545896B2, “Compositions, kits and methods for nutrition supplementation” (Chemo S. A. France, priority 2011, dated 2013).

Details: intake of about 1000 IU per day, all adults

For C=C1CC[C@H](O)C/C1=C/C=C1\CCC[C@]2(C)[C@@H]([C@H](C)CCCC(C)C)CC[C@@H]12 [vitamin D3, cholecalciferol], the “share of the population brought up to the 30 ng/ml serum range for 25-hydroxyvitamin D” value is listed as “at least 50%”.
